US20250313533A1, “QUINOLINE CARBOXYLIC ACID ESTER COMPOUND AND PREPARATION METHOD AND USE THEREOF” (priority 2019, published 2025)

Assays:
[1] = tested on: pathogenic bacteria causing black shank in potatoes; experiment: In vitro bactericidal activity, black shank in potatoes; type: cell-based; details: read-out: inhibitory rate; for inhibition at 1 ppm: dosage 1 ppm; for inhibition at 5 ppm: dosage 5 ppm
[2] = tested on: soft rot in Chinese cabbages; experiment: whole plant or invertebrate; details: 48 h, read-out: efficacy against soft rot in Chinese cabbages
[3] = tested on: pathogenic bacteria causing bacterial wilt in cassava; experiment: organism not typed; type: cell-based; details: read-out: inhibitory rate
[4] = tested on: indoor potted cucumber seedlings; experiment: Effect of improving growth and development of crops; type: in vivo; design: Rate of growth rate increase (%): concentration or dose not given beside the values; details: versus blank control; for Rate of chlorophyll content increase (%) / Rate of leaf area increase (%): 14 days after application; for Rate of growth rate increase (%): plant height 14 days after application; for Rate of leaf area increase (%): second leaf
Description: Taking indoor potted cucumber seedlings as an example, the influence of the compound disclosed herein on growth rate of plant height, chlorophyll content, leaf area, etc. of crops was mainly evaluated.
The plant heights of plants before application and 14 days after the application were measured.
The growth rates were calculated according to formula (1)
The rates of the growth rate increase (%) were calculated according to formula (2)
The longitudinal and transverse diameters (i.e., leaf length and leaf width, respectively, wherein the leaf length is the distance from the base to the tip of a leaf, and leaf width is the measured value of the upper shoulder width of the leaf) of the second leaf of plants before application and 14 days after the application were measured.
The leaf areas were calculated according to formula (3)
The leaf area increases were calculated according to formula (4)
The rates of the leaf area increases were calculated according to formula (5)
The chlorophyll contents of leaves were measured by using a chlorophyll measuring instrument (model: SPAD-520 Plus).
The chlorophyll content increases were calculated according to formula (6)
The rates of the chlorophyll content increases were calculated according to formula (7)

[5] = tested on: pathogenic bacteria causing stem rot in sweet potatoes; experiment: In vitro bactericidal activity, stem rot in sweet potatoes; type: cell-based, dikia; details: read-out: inhibitory rate; for inhibition at 1 ppm: dosage 1 ppm; for inhibition at 5 ppm: dosage 5 ppm
[6] = tested on: pathogenic bacteria causing bacterial angular leaf spot in cucumbers; experiment: In vitro bactericidal activity, bacterial angular leaf spot in cucumbers; type: cell-based, pseudomonas; details: read-out: inhibitory rate; for inhibition at 1 ppm: dosage 1 ppm; for inhibition at 5 ppm: dosage 5 ppm
[7] = tested on: fruit blotch in watermelons; experiment: whole plant or invertebrate; details: read-out: efficacy against fruit blotch in watermelons
[8] = tested on: pathogenic bacteria causing black rot in Chinese cabbages; experiment: In vitro bactericidal activity, black rot in Chinese cabbages; type: cell-based, xanthomonas; details: Xanthomonas, read-out: inhibitory rate; for inhibition at 1 ppm: dosage 1 ppm; for inhibition at 5 ppm: dosage 5 ppm
bacterial blight in rice = experiment: whole plant or invertebrate; details: Oryza sativa, read-out: efficacy against bacterial blight in rice
[9] = tested on: pathogenic bacteria causing bacterial wilt in tobacco; experiment: whole plant or invertebrate; type: cell-based, ralstonia; details: read-out: inhibitory rate
[10] = tested on: pathogenic bacteria causing fire blight in pears; experiment: In vitro bactericidal activity, fire blight in pears; type: cell-based, erwinia; details: Erwinia, read-out: inhibitory rate; for inhibition at 1 ppm: dosage 1 ppm; for inhibition at 5 ppm: dosage 5 ppm
[11] = tested on: stem rot in sweet potatoes; experiment: whole plant or invertebrate; details: read-out: efficacy against stem rot in sweet potatoes
cucumber seedlings = experiment: Safety for plant growth after application; type: in vivo; details: dosage 200 ppm
Procedure, shortened: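 Indoor potted cucumber seedlings were treated with the compounds, and crop safety was judged from effects on plant height growth rate, chlorophyll content and leaf area.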

[12] = tested on: pathogenic bacteria causing fruit blotch in watermelons; experiment: In vitro bactericidal activity, fruit blotch in watermelons; type: cell-based, acidovorax; details: read-out: inhibitory rate; for inhibition at 1 ppm: dosage 1 ppm; for inhibition at 5 ppm: dosage 5 ppm
[13] = tested on: bacterial wilt in tobacco; experiment: whole plant or invertebrate; details: Nicotiana tabacum, read-out: efficacy against bacterial wilt in tobacco
[14] = tested on: pathogenic bacteria causing bacterial blight in rice; experiment: whole plant or invertebrate; type: cell-based, xanthomonas; details: read-out: inhibitory rate
black shank in potatoes = experiment: Living crops in vivo protective activity, potatoes (root irrigation); details: Solanum tuberosum, read-out: efficacy against black shank in potatoes; for pest or weed control at 5 ppm: dosage 5 ppm; for pest or weed control at 10 ppm: dosage 10 ppm
Description: Root irrigation was carried out on the potatoes for tests according to the designed concentration of the agents. The dosage for each plant was 200 mL and was kept consistent (also for the control). The black shank bacteria were inoculated on the second day after the application. The results were investigated according to the disease condition.

COCCOC(=O)c1cn(C2CC2)c2ccc(F)cc2c1=O [Compound 10, 2-methoxyethyl 1-cyclopropyl-6-fluoro-4-oxo-1,4-dihydroquinoline-3-carboxylate]
inhibition at 1 ppm [1]: ≥ 80%
inhibition at 5 ppm [1]: ≥ 90%
pest or weed control at 5 ppm [2]: ≥ 80%
pest or weed control at 10 ppm [2]: ≥ 90%
inhibition at 1 ppm [3]: ≥ 90%
inhibition at 5 ppm [3]: ≥ 90%
Rate of chlorophyll content increase (%) [4]: 13%
Rate of growth rate increase (%) [4]: 9%
Rate of leaf area increase (%) [4]: 10%
inhibition at 1 ppm [5]: ≥ 90%
inhibition at 5 ppm [5]: ≥ 90%
inhibition at 1 ppm [6]: ≥ 90%
inhibition at 5 ppm [6]: ≥ 90%
pest or weed control at 5 ppm [7]: ≥ 90%
pest or weed control at 10 ppm [7]: ≥ 90%
inhibition at 1 ppm [8]: ≥ 90%
inhibition at 5 ppm [8]: ≥ 90%
pest or weed control at 5 ppm (bacterial blight in rice): ≥ 80%
pest or weed control at 10 ppm (bacterial blight in rice): ≥ 90%
inhibition at 1 ppm [9]: ≥ 80%
inhibition at 5 ppm [9]: ≥ 90%
inhibition at 1 ppm [10]: ≥ 90%
inhibition at 5 ppm [10]: ≥ 90%
pest or weed control at 5 ppm [11]: ≥ 90%
pest or weed control at 10 ppm [11]: ≥ 90%
safety for plant growth (discoloration, necrosis, wilt, malformation) (cucumber seedlings): safe for plant growth
inhibition at 1 ppm [12]: ≥ 90%
inhibition at 5 ppm [12]: ≥ 90%
pest or weed control at 5 ppm [13]: ≥ 90%
pest or weed control at 10 ppm [13]: ≥ 90%
inhibition at 1 ppm [14]: ≥ 80%
inhibition at 5 ppm [14]: ≥ 90%
pest or weed control at 5 ppm (black shank in potatoes): ≥ 80%
pest or weed control at 10 ppm (black shank in potatoes): ≥ 90%

COCOC(=O)c1cn(C2CC2)c2cc(Cl)c(F)cc2c1=O [Compound 143]
inhibition at 1 ppm [1]: ≥ 80%
inhibition at 5 ppm [1]: ≥ 90%
pest or weed control at 5 ppm [2]: ≥ 80%
pest or weed control at 10 ppm [2]: ≥ 90%
inhibition at 1 ppm [3]: ≥ 80%
inhibition at 5 ppm [3]: ≥ 90%
Rate of chlorophyll content increase (%) [4]: 11%
Rate of growth rate increase (%) [4]: 8%
Rate of leaf area increase (%) [4]: 15%
inhibition at 1 ppm [5]: ≥ 80%
inhibition at 5 ppm [5]: ≥ 90%
inhibition at 1 ppm [6]: ≥ 80%
inhibition at 5 ppm [6]: ≥ 90%
pest or weed control at 5 ppm [7]: ≥ 90%
pest or weed control at 10 ppm [7]: ≥ 90%
inhibition at 1 ppm [8]: ≥ 80%
inhibition at 5 ppm [8]: ≥ 90%
pest or weed control at 5 ppm (bacterial blight in rice): ≥ 80%
pest or weed control at 10 ppm (bacterial blight in rice): ≥ 90%
inhibition at 1 ppm [9]: ≥ 80%
inhibition at 5 ppm [9]: ≥ 90%
inhibition at 1 ppm [10]: ≥ 80%
inhibition at 5 ppm [10]: ≥ 90%
pest or weed control at 5 ppm [11]: ≥ 90%
pest or weed control at 10 ppm [11]: ≥ 90%
safety for plant growth (discoloration, necrosis, wilt, malformation) (cucumber seedlings): safe for plant growth
inhibition at 1 ppm [12]: ≥ 80%
inhibition at 5 ppm [12]: ≥ 90%
pest or weed control at 5 ppm [13]: ≥ 90%
pest or weed control at 10 ppm [13]: ≥ 90%
inhibition at 1 ppm [14]: ≥ 80%
inhibition at 5 ppm [14]: ≥ 90%
pest or weed control at 5 ppm (black shank in potatoes): ≥ 80%
pest or weed control at 10 ppm (black shank in potatoes): ≥ 90%

CCOCOC(=O)c1cn(C2CC2)c2cc(Cl)c(F)cc2c1=O [Compound 144]
inhibition at 1 ppm [1]: ≥ 80%
inhibition at 5 ppm [1]: ≥ 90%
pest or weed control at 5 ppm [2]: ≥ 80%
pest or weed control at 10 ppm [2]: ≥ 90%
inhibition at 1 ppm [3]: ≥ 80%
inhibition at 5 ppm [3]: ≥ 90%
Rate of chlorophyll content increase (%) [4]: 18%
Rate of growth rate increase (%) [4]: 10%
Rate of leaf area increase (%) [4]: 13%
inhibition at 1 ppm [5]: ≥ 80%
inhibition at 5 ppm [5]: ≥ 90%
inhibition at 1 ppm [6]: ≥ 80%
inhibition at 5 ppm [6]: ≥ 90%
pest or weed control at 5 ppm [7]: ≥ 90%
pest or weed control at 10 ppm [7]: ≥ 90%
inhibition at 1 ppm [8]: ≥ 80%
inhibition at 5 ppm [8]: ≥ 90%
pest or weed control at 5 ppm (bacterial blight in rice): ≥ 80%
pest or weed control at 10 ppm (bacterial blight in rice): ≥ 90%
inhibition at 1 ppm [9]: ≥ 80%
inhibition at 5 ppm [9]: ≥ 90%
inhibition at 1 ppm [10]: ≥ 80%
inhibition at 5 ppm [10]: ≥ 90%
pest or weed control at 5 ppm [11]: ≥ 90%
pest or weed control at 10 ppm [11]: ≥ 90%
safety for plant growth (discoloration, necrosis, wilt, malformation) (cucumber seedlings): safe for plant growth
inhibition at 1 ppm [12]: ≥ 80%
inhibition at 5 ppm [12]: ≥ 90%
pest or weed control at 5 ppm [13]: ≥ 90%
pest or weed control at 10 ppm [13]: ≥ 90%
inhibition at 1 ppm [14]: ≥ 80%
inhibition at 5 ppm [14]: ≥ 90%
pest or weed control at 5 ppm (black shank in potatoes): ≥ 80%
pest or weed control at 10 ppm (black shank in potatoes): ≥ 90%
